{"source": "paper PMC4303209", "about": "“A novel phosphatidylinositol 3-kinase (PI3K) inhibitor directs a potent FOXO-dependent, p53-independent cell cycle arrest phenotype characterized by the differential induction of a subset of FOXO-regulated genes” (Breast Cancer Research : BCR, 2014)", "tested_on": "MCF-7 breast cancer cells", "assay": "Microarray gene expression analysis (Agilent whole human genome 4 x 44K; compound vs DMSO, LIMMA log2 fold change)", "assay_type": "cell-based", "data": [{"smiles": "Oc1cccc(-c2nc(N3CCOCC3)c3oc4ncccc4c3n2)c1", "note": "[PI-103]", "values": [{"measurement": "PDGFRB log2FC", "setting": "gene PDGFRB (5159), apoptosis genes", "result": 0.024}, {"measurement": "PEG3 log2FC", "setting": "gene PEG3 (5178), apoptosis genes", "result": 0.129}, {"measurement": "PEG10 log2FC", "setting": "gene PEG10 (23089), apoptosis genes", "result": -0.104}, {"measurement": "PF4 log2FC", "setting": "gene PF4 (5196), apoptosis genes", "result": -0.033}, {"measurement": "PHLDA3 log2FC", "setting": "gene PHLDA3 (23612), apoptosis genes", "result": 0.113}, {"measurement": "PIK3CG log2FC", "setting": "gene PIK3CG (5294), apoptosis genes", "result": -0.004}, {"measurement": "PKP1 log2FC", "setting": "gene PKP1 (5317), apoptosis genes", "result": 0.031}, {"measurement": "PLEKHG5 log2FC", "setting": "gene PLEKHG5 (57449), apoptosis genes", "result": 0.199}, {"measurement": "PLSCR3 log2FC", "setting": "gene PLSCR3 (57048), apoptosis genes", "result": 0.125}, {"measurement": "POLB log2FC", "setting": "gene POLB (5423), apoptosis genes", "result": -0.249}, {"measurement": "log2FC", "setting": "gene POLD4 (Gene 57804), cell cycle genes", "result": 0.0256}, {"measurement": "POR log2FC", "setting": "gene POR (5447), apoptosis genes", "result": 0.107}, {"measurement": "POU3F4 log2FC", "setting": "gene POU3F4 (5456), apoptosis genes", "result": -0.017}, {"measurement": "POU4F1 log2FC", "setting": "gene POU4F1, apoptosis genes", "result": 0.019}, {"measurement": "log2FC", "setting": "gene PPAT (Gene 10606), cell cycle genes", "result": 0.08}, {"measurement": "log2FC", "setting": "gene PPP1CA (Gene 5499), cell cycle genes", "result": -0.18}, {"measurement": "log2FC", "setting": "gene PPP2CA (Gene 5515), cell cycle genes", "result": -0.52}, {"measurement": "PPP2R1A log2FC", "setting": "gene PPP2R1A (5518), apoptosis genes", "result": 0.062}, {"measurement": "PRAMEF8 log2FC", "setting": "gene PRAMEF8 (391002), apoptosis genes", "result": 0.060}, {"measurement": "PRAMEF10 log2FC", "setting": "gene PRAMEF10 (343071), apoptosis genes", "result": 0.251}, {"measurement": "log2FC", "setting": "gene PRKACB (Gene 5567), cell cycle genes", "result": 0.52}, {"measurement": "log2FC PRKAG3", "setting": "gene PRKAG3 (Gene 53632), cell cycle genes", "result": -0.0237}, {"measurement": "PRKRA log2FC", "setting": "gene PRKRA (8575), apoptosis genes", "result": -0.093}, {"measurement": "PRLR log2FC", "setting": "gene PRLR (5618), apoptosis genes", "result": 0.00543}, {"measurement": "PROC log2FC", "setting": "gene PROC (5624), apoptosis genes", "result": 0.030}, {"measurement": "PROP1 log2FC", "setting": "gene PROP1 (5626), apoptosis genes", "result": 0.324}, {"measurement": "PSMA1 log2FC", "setting": "gene PSMA1 (5682), apoptosis genes", "result": -0.030}, {"measurement": "log2FC", "setting": "gene PSMA2 (Gene 5683), cell cycle genes", "result": 0.17}, {"measurement": "log2FC", "setting": "gene PSMA3 (Gene 5684), cell cycle genes", "result": 0.14}, {"measurement": "PSMA5 log2FC", "setting": "gene PSMA5 (5686), apoptosis genes", "result": -0.147}, {"measurement": "log2FC PSMA5", "setting": "gene PSMA5 (Gene 5686), cell cycle genes", "result": -0.15}, {"measurement": "PSMA7 log2FC", "setting": "gene PSMA7 (5688), apoptosis genes", "result": -2.082}, {"measurement": "log2FC PSMA7", "setting": "gene PSMA7 (Gene 5688), cell cycle genes", "result": -2.08}, {"measurement": "PSMB3 log2FC", "setting": "gene PSMB3 (5691), apoptosis genes", "result": 0.053}, {"measurement": "log2FC", "setting": "gene PSMB4 (Gene 5692), cell cycle genes", "result": 0.17}, {"measurement": "PSMB7 log2FC", "setting": "gene PSMB7 (5695), apoptosis genes", "result": -0.149}, {"measurement": "log2FC PSMB7", "setting": "gene PSMB7 (Gene 5695), cell cycle genes", "result": -0.15}, {"measurement": "PSMB8 log2FC", "setting": "gene PSMB8 (5696), apoptosis genes", "result": -0.00568}, {"measurement": "PSMC4 log2FC", "setting": "gene PSMC4 (5704), apoptosis genes", "result": -0.023}, {"measurement": "log2FC PSMC4", "setting": "gene PSMC4 (Gene 5704), cell cycle genes", "result": -0.0233}, {"measurement": "PSMD2 log2FC", "setting": "gene PSMD2 (5708), apoptosis genes", "result": 0.00374}, {"measurement": "PSMD13 log2FC", "setting": "gene PSMD13 (5719), apoptosis genes", "result": -0.172}, {"measurement": "log2FC", "setting": "gene PSMD14 (Gene 10213), cell cycle genes", "result": 0.15}, {"measurement": "log2FC", "setting": "gene PSME1 (Gene 5720), cell cycle genes", "result": 0.31}, {"measurement": "PSME2 log2FC", "setting": "gene PSME2 (5721), apoptosis genes", "result": 0.039}, {"measurement": "log2FC", "setting": "gene PTTG1 (Gene 9232), cell cycle genes", "result": -0.21}, {"measurement": "PYCARD log2FC", "setting": "gene PYCARD (29108), apoptosis genes", "result": -0.121}, {"measurement": "log2FC", "setting": "gene RAB11FIP3 (Gene 9727), cell cycle genes", "result": -0.14}, {"measurement": "log2FC RAD51C", "setting": "gene RAD51C (Gene 5889), cell cycle genes", "result": -0.24}, {"measurement": "log2FC RAE1", "setting": "gene RAE1 (Gene 8480), cell cycle genes", "result": -0.15}, {"measurement": "RAF1 log2FC", "setting": "gene RAF1 (5894), apoptosis genes", "result": -0.081}, {"measurement": "log2FC", "setting": "gene RALA (Gene 5898), cell cycle genes", "result": 0.34}, {"measurement": "log2FC", "setting": "gene RALB (Gene 5899), cell cycle genes", "result": 0.08}, {"measurement": "RAMP2 log2FC", "setting": "gene RAMP2 (10266), apoptosis genes", "result": 0.059}, {"measurement": "log2FC RANGAP1", "setting": "gene RANGAP1 (Gene 5905), cell cycle genes", "result": -0.09}, {"measurement": "RAPSN log2FC", "setting": "gene RAPSN (5913), apoptosis genes", "result": -0.146}, {"measurement": "RARB log2FC", "setting": "gene RARB (5915), apoptosis genes", "result": 0.00425}, {"measurement": "RASSF6 log2FC", "setting": "gene RASSF6 (166824), apoptosis genes", "result": 0.020}, {"measurement": "log2FC", "setting": "gene RBBP8 (Gene 5932), cell cycle genes", "result": 0.34}, {"measurement": "log2FC", "setting": "gene RBL1 (Gene 5933), cell cycle genes", "result": 0.17}, {"measurement": "log2FC", "setting": "gene RBM7 (Gene 10179), cell cycle genes", "result": 0.23}, {"measurement": "log2FC", "setting": "gene RCC1 (Gene 1104), cell cycle genes", "result": -0.14}, {"measurement": "log2FC REEP4", "setting": "gene REEP4 (Gene 80346), cell cycle genes", "result": 0.28}, {"measurement": "RET log2FC", "setting": "gene RET (5979), apoptosis genes", "result": -0.025}, {"measurement": "RHOT2 log2FC", "setting": "gene RHOT2 (89941), apoptosis genes", "result": 0.051}, {"measurement": "log2FC RPA2", "setting": "gene RPA2 (Gene 6118), cell cycle genes", "result": -0.25}, {"measurement": "RPS3 log2FC", "setting": "gene RPS3 (6188), apoptosis genes", "result": -0.043}, {"measurement": "RPS6KA2 log2FC", "setting": "gene RPS6KA2 (6196), apoptosis genes", "result": 0.189}, {"measurement": "log2FC", "setting": "gene RPS6KB1 (Gene 6198), cell cycle genes", "result": 0.25}, {"measurement": "RRN3 log2FC", "setting": "gene RRN3 (653390), apoptosis genes", "result": 0.004}, {"measurement": "log2FC", "setting": "gene RSPO1 (Gene 284654), cell cycle genes", "result": -0.11}, {"measurement": "RYR2 log2FC", "setting": "gene RYR2 (6262), apoptosis genes", "result": -0.075}, {"measurement": "S100A9 log2FC", "setting": "gene S100A9 (6280), apoptosis genes", "result": 0.057}, {"measurement": "S100A14 log2FC", "setting": "gene S100A14 (57402), apoptosis genes", "result": 0.033}, {"measurement": "log2FC", "setting": "gene SART1 (Gene 9092), cell cycle genes", "result": -0.00235}, {"measurement": "SCIN log2FC", "setting": "gene SCIN (85477), apoptosis genes", "result": -0.013}, {"measurement": "log2FC", "setting": "gene SEH1L (Gene 81929), cell cycle genes", "result": -0.57}, {"measurement": "SEMA5A log2FC", "setting": "gene SEMA5A (9037), apoptosis genes", "result": -0.022}]}]}
